Consider one compound from ChEMBL document CHEMBL1158770, “Cladionol A, a polyketide glycoside from marine-derived fungus Gliocladium species” (J Nat Prod, 2005).

The subject of one assay is L1210. The experiment in a line: Cytotoxicity against mouse L1210 cells. Format: functional, cell-based.
The test system of another assay is KB. Nature of the assay: Cytotoxicity against human KB cells. The format is functional, cell-based.

Molecules are shown by their SMILES. In brackets after ≈: the same amount, converted by molar mass.

For orientation: IC50 means the concentration needed to halve the response being measured. A higher IC50 goes with a need for much substance. `CCC(C)CC(C)CC(C)C(O[C@@H]1O[C@H](C(=O)OC)[C@@H](O)[C@H](O)[C@@H]1O)C(C)/C=C(\C)C(O)C(C)/C=C(\C)C(O)C(C)/C=C(\C)[C@H](O)[C@@H](C)C(=O)OC[C@H](O)[C@@H](O)[C@@H](O)CO` (some centres not stated) [CLADIONOL A]: the IC50 is 5 µg/mL (≈ 5.79 µM) in the assay on L1210 and 7 µg/mL (≈ 8.11 µM) in the assay with KB.
